For data set [1], the target named is T1, Drosophila insulin receptor kinase domain (D-IRK) (Drosophila melanogaster, UniProt P09208).
T1 sequence (P09208 1358-1672): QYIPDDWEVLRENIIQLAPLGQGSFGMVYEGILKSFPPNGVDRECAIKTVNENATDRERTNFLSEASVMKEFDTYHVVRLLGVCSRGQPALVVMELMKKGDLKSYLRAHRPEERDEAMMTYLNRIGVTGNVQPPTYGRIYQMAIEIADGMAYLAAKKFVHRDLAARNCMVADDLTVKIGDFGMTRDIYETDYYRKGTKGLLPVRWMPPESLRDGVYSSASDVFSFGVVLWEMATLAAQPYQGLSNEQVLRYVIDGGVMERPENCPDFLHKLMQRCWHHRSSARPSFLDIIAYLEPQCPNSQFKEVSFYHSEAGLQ
In words: [γ-32P]-ATP phosphocellulose kinase assay at […]. It counts as biochemical. Conditions: read-out: % inhibition at 10 μM.

Data set [2] concerns the target T1, Drosophila insulin receptor kinase domain (D-IRK). In words: [γ-32P]-ATP phosphocellulose kinase assay. It counts as biochemical. The following applies: read-out: % inhibition at 10 μM.
Substrate in data set [3]: Nc1ncnc2c1ncn2[C@@H]1O[C@H](COP(=O)(O)OP(=O)(O)OP(=O)(O)O)[C@@H](O)[C@H]1O
As to the kind of experiment: continuous spectrophotometric coupled assay, Km. It counts as biochemical, Drosophila melanogaster. Conditions: Mg2+ ATP-binding site.

From PMC11284340 (FASEB journal : official publication of the Federation of …, 2024) come the findings set out here.

A word on the inhibition: it is how much of the control response was suppressed. The term Km denotes the concentration of substrate that gives half-maximal velocity.

Take `COc1cc2c(Nc3ccc(Br)cc3F)ncnc2cc1OCC1CCN(C)CC1` [Vandetanib]: the inhibition at 10 µM in data set [1] is approximately 70%.

Take `CN[C@@H]1C[C@H]2O[C@@](C)([C@@H]1OC)n1c3ccccc3c3c4c(c5c6ccccc6n2c5c31)C(=O)NC4` [Staurosporine]: the inhibition at 10 µM in data set [2] came out at 98%.

B1: Drosophila insulin receptor kinase domain (D-IRK) (Drosophila melanogaster) (protein)
chain: T1 sequence (P09208 1358-1672)
With B1, the Km in data set [3] was determined as 1350 ± 170 µM.
